# Experimental data: US4863904A, “Dipeptides as renin inhibitors” (priority 1984, dated 1989)
# Target: T1, human renin (Homo sapiens, UniProt P00797)
# T1 sequence (P00797 67-406): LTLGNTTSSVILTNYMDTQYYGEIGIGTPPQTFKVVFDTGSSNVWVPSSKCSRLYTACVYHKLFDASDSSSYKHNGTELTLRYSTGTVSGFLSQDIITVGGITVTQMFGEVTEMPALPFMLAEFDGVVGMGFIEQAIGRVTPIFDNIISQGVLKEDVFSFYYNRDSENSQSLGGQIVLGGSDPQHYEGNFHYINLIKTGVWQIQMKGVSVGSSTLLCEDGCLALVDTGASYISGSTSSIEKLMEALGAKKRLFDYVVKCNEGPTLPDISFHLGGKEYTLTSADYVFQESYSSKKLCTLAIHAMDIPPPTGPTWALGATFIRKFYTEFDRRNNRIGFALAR
# Assay: Human renin-sheep renin substrate reaction system in vitro
# Assay type: biochemical
# Conditions: IC50 (molar concentration), purified human renin, semipurified sheep renin substrate, pH 7.4, 37° C., 15 minutes; angiotensin I by radioimmunoassay
# Description: The mixture was incubated for 15 minutes on a water bath at 37° C., and the reaction mixture was allowed to stand for 5 minutes on a water bath at 100° C. to stop the reaction. After cooling, 200 μl of the solution was taken up and the amount of angiotensin I produced by the addition of renin was determined by radioimmunoassay. The inhibitory effect was calculated by the following equation. [formula]
# As a control, the same procedure as above was carried out by using 50 μl of dimethyl sulfoxide alone in place of the 50 μl of dimethyl sulfoxide solution containing a dipeptide of the present invention.
row,IC50,Compound
1,13 µM,CC(C)C[C@@H](CO)NC(=O)[C@H](Cc1c[nH]cn1)NC(=O)C(CCCC(=O)c1ccccc1)Cc1cccc2ccccc12 (mixture of isomers)
2,15 µM,CC(C)C[C@@H](CO)NC(=O)[C@H](Cc1c[nH]cn1)NC(=O)C(CCOCCc1ccccc1)Cc1cccc2ccccc12 (mixture of isomers) [N-[(±)-2-(1-Naphthylmethyl)-4-phenethoxybutyryl]-L-histidyl-L-leucinol]
3,5.4 µM,CC(C)C[C@@H](CO)NC(=O)[C@H](Cc1c[nH]cn1)NC(=O)C(CCCCc1ccccc1)Cc1cccc2ccccc12 (mixture of isomers) [N-[(±)-2-(1-Naphthylmethyl)-6-phenylhexanoyl]-L-histidyl-L-leucinol]

# Same assay, conditions: purified human renin, semipurified sheep renin substrate, pH 7.4, 37° C., 15 minutes; angiotensin I by radioimmunoassay; read-out: IC50 (molar concentration)
row,IC50,Compound
1,76 µM,CC(C)C[C@@H](CO)NC(=O)[C@H](Cc1c[nH]cn1)NC(=O)C(CCCCc1ccccc1)Oc1cccc2ccccc12 (mixture of isomers) [N-[(±)-2-(1-Naphthoxy)-6-phenylhexanoyl]-L-histidyl-L-leucinol]
2,0.075 µM,CC(C)C[C@@H](C=O)NC(=O)[C@H](Cc1c[nH]cn1)NC(=O)C(CCOCCc1ccccc1)Cc1cccc2ccccc12 (mixture of isomers) [N-[(±)-2-(1-Naphthylmethyl)-4-phenethoxybutyryl]-L-histidyl-L-leucinal]
3,26 µM,CC(C)C[C@@H](CO)NC(=O)[C@H](Cc1c[nH]cn1)NC(=O)C(CCCOc1ccccc1)Cc1cccc2ccccc12 (mixture of isomers) [N-[(±)-2-(1-Naphthylmethyl)-5-phenoxyvaleryl]-L-histidyl-L-leucinol]
4,0.22 µM,CC(C)C[C@@H](C=O)NC(=O)[C@H](Cc1c[nH]cn1)NC(=O)C(CC=Cc1ccccc1)Cc1cccc2ccccc12 (mixture of isomers) [N-[(±)-2-(1-Naphthylmethyl)-5-phenyl-4-pentenoyl]-L-histidyl-L-leucinal]
5,2.7 µM,CC(C)C[C@@H](CO)NC(=O)[C@H](Cc1c[nH]cn1)NC(=O)C(CC=Cc1ccccc1)Cc1cccc2ccccc12 (mixture of isomers) [N-[(±)-2-(1-Naphthylmethyl)-5-phenyl-4-pentenoyl]-L-histidyl-L-leucinol]
6,13 µM,CC(C)C[C@@H](CO)NC(=O)[C@H](Cc1c[nH]cn1)NC(=O)C(CCCc1ccccc1)Cc1cccc2ccccc12 (mixture of isomers) [N-[(±)-2-(1-Naphthylmethyl)-5-phenylvaleryl]-L-histidyl-L-leucinol]
7,0.44 µM,"CC(C)C[C@@H](C=O)NC(=O)[C@H](Cc1c[nH]cn1)NC(=O)C(CC=CC=Cc1ccccc1)Cc1cccc2ccccc12 (mixture of isomers) [N-[(±)-2-(1-Naphthylmethyl)-7-phenyl-4,6-heptadienoyl]-L-histidyl-L-leucinal]"
8,12 µM,"CC(C)C[C@@H](CO)NC(=O)[C@H](Cc1c[nH]cn1)NC(=O)C(CC=CC=Cc1ccccc1)Cc1cccc2ccccc12 (mixture of isomers) [N-[(±)-2-(1-Naphthylmethyl)-7-phenyl-4,6-heptadienoyl]-L-histidyl-L-leucinol]"
9,8.2 µM,CC(C)C[C@@H](C=O)NC(=O)[C@H](Cc1c[nH]cn1)NC(=O)C(Cc1ccccc1)C(=O)NCc1cccc2ccccc12 (mixture of isomers) [N-[(±)-2-(1-Naphthylmethylcarbamoyl)-3-phenylpropionyl]-L-histidyl-L-leucinal]
10,7.6 µM,CC(C)C[C@@H](C=O)NC(=O)[C@H](Cc1c[nH]cn1)NC(=O)C(CNC(=O)Cc1cccc2ccccc12)Cc1ccccc1 (mixture of isomers) [N-[(±)-2-Benzyl-3-(1-naphthylacetamido)propionyl]-L-histidyl-L-leucinal]
11,7.2 µM,CC(C)C[C@@H](C=O)NC(=O)[C@H](Cc1c[nH]cn1)NC(=O)C(CC(=O)NCc1cccc2ccccc12)Cc1ccccc1 (mixture of isomers) [N-[(±)-2-Benzyl-3-(1-naphthylmethylcarbamoyl)propionyl]-L-histidyl-L-leucinal]
12,0.19 µM,CC(C)C[C@@H](C=O)NC(=O)[C@H](Cc1c[nH]cn1)NC(=O)C(CCCC(=O)c1ccccc1)Cc1cccc2ccccc12 (mixture of isomers) [N-[(±)-5-Benzoyl-2-(1-naphthylmethyl)valeryl]-L-histidyl-L-leucinal]
13,25 µM,"CC(C)C[C@@H](CO)NC(=O)[C@H](Cc1c[nH]cn1)NC(=O)C(CC(=O)NCCc1ccccc1)Cc1cccc2ccccc12 (single isomer, unassigned) [N-[2-(1-Naphthylmethyl)-3-(phenethylcarbamoyl)propionyl]-L-histidyl-L-leucinol]"
14,65 µM,"CC(C)C[C@@H](CO)NC(=O)[C@H](Cc1c[nH]cn1)NC(=O)C(CC(=O)Nc1ccccc1)Cc1cccc2ccccc12 (single isomer, unassigned) [N-[2-(1-Naphthylmethyl)-3-(phenylcarbamoyl)propionyl]-L-histidyl-L-leucinol(isomer A)]"
15,18 µM,"CC(C)C[C@@H](CO)NC(=O)[C@H](Cc1c[nH]cn1)NC(=O)C(CC(=O)Nc1ccccc1)Cc1cccc2ccccc12 (single isomer, unassigned) [N-[2-(1-Naphthylmethyl)-3-(phenylcarbamoyl)propionyl]-L-histidyl-L-leucinol(isomer B)]"
16,47 µM,"CC(C)C[C@@H](CO)NC(=O)[C@H](Cc1c[nH]cn1)NC(=O)C(CNCCCc1ccccc1)Cc1cccc2ccccc12 (single isomer, unassigned) [N-[2-(1-naphthylmethyl)-3-(3-phenylpropylamino)propionyl]-L-histidyl-L-leucinol (isomer A)]"
17,0.041 µM,"CC(C)C[C@@H](C=O)NC(=O)[C@H](Cc1c[nH]cn1)NC(=O)C(CC(=O)NCCc1ccccc1)Cc1cccc2ccccc12 (single isomer, unassigned) [N-[2-(1-naphthylmethyl)-3-(phenethylcarbamoyl)propionyl]-L-histidyl-L-leucinal (isomer A)]"
18,7.4 µM,"CC(C)C[C@@H](CO)NC(=O)[C@H](Cc1c[nH]cn1)NC(=O)C(CC(=O)NCCc1ccccc1)Cc1cccc2ccccc12 (single isomer, unassigned) [N-[2-(1-naphthylmethyl)-3-(phenethylcarbamoyl)propionyl]-L-histidyl-L-leucinol (isomer A)]"
19,91 µM,"O=C(CC(Cc1cccc2ccccc12)C(=O)N[C@@H](Cc1c[nH]cn1)C(=O)N[C@H](CO)Cc1ccccc1)NCCc1ccccc1 (single isomer, unassigned) [N-[2-(1-naphthylmethyl)-3-(phenethylcarbamoyl)propionyl]-L-histidyl-L-phenylalaninol (isomer A)]"
20,0.07 µM,"CC(C)C[C@@H](C=O)NC(=O)[C@H](Cc1c[nH]cn1)NC(=O)C(CC(=O)NCc1ccccc1)Cc1cccc2ccccc12 (single isomer, unassigned) [N-[3-(Benzylcarbamoyl)-2-(1-naphthylmethyl)propionyl]-L-histidyl-L-leucinal(isomer A)]"
21,4.9 µM,"CC(C)C[C@@H](C=O)NC(=O)[C@H](Cc1c[nH]cn1)NC(=O)C(CC(=O)NCc1ccccc1)Cc1cccc2ccccc12 (single isomer, unassigned) [N-[3-(Benzylcarbamoyl)-2-(1-naphthylmethyl)propionyl]-L-histidyl-L-leucinal(isomer B)]"
22,19 µM,"CC(C)C[C@@H](CO)NC(=O)[C@H](Cc1c[nH]cn1)NC(=O)C(CC(=O)NCc1ccccc1)Cc1cccc2ccccc12 (single isomer, unassigned) [N-[3-(Benzylcarbamoyl)-2-(1-naphthylmethyl)propionyl]-L-histidyl-L-leucinol(isomer A)]"
23,27 µM,"CC(C)C[C@@H](CO)NC(=O)[C@H](Cc1c[nH]cn1)NC(=O)C(CC(=O)NCc1ccccc1)Cc1cccc2ccccc12 (single isomer, unassigned) [N-[3-(Benzylcarbamoyl)-2-(1-naphthylmethyl)propionyl]-L-histidyl-L-leucinol(isomer B)]"
24,28 µM,"CC(C)C[C@@H](CO)NC(=O)[C@H](Cc1c[nH]cn1)NC(=O)C(CC(=O)NCCc1c[nH]c2ccccc12)Cc1cccc2ccccc12 (single isomer, unassigned) [N-{3-[2-(3-Indolyl)ethylcarbamoyl]-2-(1-naphthylmethyl)propionyl}-L-histidyl-L-leucinol (isomer A)]"
25,6.6 µM,"CC(C)C[C@@H](CO)NC(=O)[C@H](Cc1c[nH]cn1)NC(=O)C(CC(=O)NCCc1c[nH]c2ccccc12)Cc1cccc2ccccc12 (single isomer, unassigned) [N-{3-[2-(3-Indolyl)ethylcarbamoyl]-2-(1-naphthylmethyl)propionyl}-L-histidyl-L-leucinol (isomer B)]"
26,1.1 µM,CC(C)C[C@@H](C=O)NC(=O)[C@H](Cc1c[nH]cn1)NC(=O)C(Cc1ccccc1)Cc1ccccc1 [N-(2-Benzyl-3-phenylpropionyl)-L-histidyl-L-leucinal]
27,0.14 µM,CC(C)C[C@@H](C=O)NC(=O)[C@H](Cc1c[nH]cn1)NC(=O)C(CCCCc1ccccc1)Cc1cccc2ccccc12 (stereo partly drawn) [N-[2-(1-Naphthylmethyl)-6-phenylhexanoyl]-L-histidyl-L-leucinal]
28,69 µM,CC(C)C[C@@H](CO)NC(=O)[C@H](Cc1c[nH]cn1)NC(=O)C(=Cc1cccc2ccccc12)CC(=O)NCCc1ccccc1 [N-[2-(1-Naphthylmethylene)-3-(phenethylcarbamoyl)propionyl]-L-histidyl-L-leucinol]
